Columns and labels:
[1] = tested on: vitamin B1 in human whole blood; assay: In vitro effect on vitamin B1 concentration in human whole blood; conditions: human whole blood, 5, 50, 500 μg/mL, 37° C.
Description: In addition, as described in Experiment Example 1 and Experiment Example 2, administration of a pyridoxamine compound increases not only the serum pyridoxamine concentration, but also the serum pyridoxal concentration, and thus, pyridoxamine and pyridoxal were both used as test substances for the investigation.
Blood was collected from a human using EDTA⋅2K as an anticoagulant. In addition, pyridoxamine dihydrochloride (Sigma-Aldrich Japan) was used as pyridoxamine, and pyridoxal hydrochloride (Nacalai Tesque, Inc.) was used as pyridoxal. They were dissolved at 0.5, 5, and 50 mg/mL in physiological saline to prepare test solutions. 10 μL of each test solution was individually added per mL of the whole blood collected above (test samples). The final concentrations of each test substance in the test samples were 5, 50, 500 μg/mL. Further, a vehicle was prepared by adding 10 μl of physiological saline to 1 ml of the whole blood. The vehicle and the test samples were incubated at 37° C. for 1 hour or 16 hours and then immediately frozen. Measurement of the vitamin B1 concentrations in the whole blood before the start of the incubation to which neither the physiological saline nor any test solution was added (baseline: indicated by “BL” in FIG. 4), and in the vehicle and in each test sample after the incubation, was outsourced to SRL Inc., and the measurement was performed using LC/MS/MS.

vitamin B1 deficiency = assay: Prevention of vitamin B1 deficiency by pyridoxamine compound in combination with thiamine compound; type: in vivo, human; conditions: seven schizophrenia patients; pyridoxamine dihydrochloride 1200 to 1800 mg per day oral for 24 weeks, with fursultiamine 75 mg/day oral from 2 to 21 weeks after start
[2] = tested on: Wernicke's encephalopathy; assay: Wernicke's encephalopathy findings (MRI of the brain, symptoms) during drug administration; type: in vivo, human
Experimental: Immediately after the patient was suspected of having Wernicke's encephalopathy, oral administration of a thiamine compound (fursultiamine (Takeda Pharmaceutical Company Limited)) at a dose of 75 mg/day was initiated (administered once a day) and continued every day.
Immediately after the patient was suspected of having Wernicke's encephalopathy, intravenous administration of a thiamine compound (fursultiamine (Takeda Pharmaceutical Company Limited)) (300 mg/day) was performed, and then (from 10 weeks after the start of drug administration), oral administration of the thiamine compound at a dose of 100 to 50 mg/day was continued.

[3] = Serum pyridoxamine and pyridoxal concentrations in schizophrenia patients during drug administration; type: in vivo, human
Experimental: Measurement of the serum pyridoxamine concentration, the serum pyridoxal concentration, and the serum pyridoxine concentration was outsourced to SRL Inc. or Mitsubishi Chemical Medience Corporation (now LSI Medience Corporation).
Pyridoxamine dihydrochloride was orally administered as a pyridoxamine compound to schizophrenia patients daily, three times a day (morning, noon, and before bedtime) in an amount of 400 mg or 600 mg each time (daily dose of pyridoxamine: about 830 mg or 1250 mg) according to the protocols shown in FIG. 2 (described as “PM dose (mg/one time)” in FIG. 2).

Structure (SMILES): Cc1ncc(CO)c(CN)c1O.Cl.Cl [pyridoxamine dihydrochloride]
- change in whole blood vitamin B1 concentration ([1]; 1 hour incubation): no changes
- change in whole blood vitamin B1 concentration ([1]; 16 hours incubation): decrease was similar to that in the vehicle
- findings suggestive of vitamin B1 deficiency (vitamin B1 deficiency): no findings suggestive of vitamin B1 deficiency were observed in any of the seven schizophrenia patients
- MRI of the brain finding during drug administration ([2]; patient ID No. 3, 6 weeks after the start of drug administration, after an epilepsy-like symptom): findings suggestive of Wernicke's encephalopathy
- MRI of the brain finding during drug administration ([2]; patient ID No. 6, 9 weeks after the start of drug administration): findings suggestive of Wernicke's encephalopathy
- serum pyridoxamine concentration, times higher than at the start of drug administration ([3]; patient ID No. 3, 4 weeks after the start of drug administration): about 7700 times
- serum pyridoxamine concentration, times higher than at the start of drug administration ([3]; patient ID No. 6, 8 weeks after the start of drug administration): about 2100 times
